# In ChEMBL document CHEMBL1201862, “PubChem BioAssay data set” (2004):
#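 Test compounds were applied to cells in 96-well plates for 48 hours at 5 doses. Abbreviation: GI50, concentration required for 50% inhibition of growth.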 Calls of active or inactive are those of the source. Rule as the data show it: active = GI50 up to about 1.1 µM and inactive = higher.
# Tests used:
# Assay in all cases: NCI anticancer screen, dose series, 48 h
# 786-0 = test system: 786-0
# A549 = test system: A549
# BT-549 = test system: BT-549
# CAKI-1 = test system: CAKI-1
# HCT-116 = test system: HCT-116
# Hs-578T = test system: Hs-578T
# IGROV-1 = test system: IGROV-1
# KM12 = test system: KM12
# LOX IMVI = test system: LOX IMVI
# Malme-3M = test system: Malme-3M
# NCI-H460 = test system: NCI-H460
# OVCAR-3 = test system: OVCAR-3
# OVCAR-4 = test system: OVCAR-4
# OVCAR-8 = test system: OVCAR-8
# RPMI-8226 = test system: RPMI-8226
# SF-268 = test system: SF-268
# SK-MEL-5 = test system: SK-MEL-5
# SK-OV-3 = test system: SK-OV-3
# SR = test system: SR
# SW-620 = test system: SW-620
SMILES,GI50 (786-0),GI50 (A549),GI50 (BT-549),GI50 (CAKI-1),GI50 (HCT-116),GI50 (Hs-578T),GI50 (IGROV-1),GI50 (KM12),GI50 (LOX IMVI),GI50 (Malme-3M),GI50 (NCI-H460),GI50 (OVCAR-3),GI50 (OVCAR-4),GI50 (OVCAR-8),GI50 (RPMI-8226),GI50 (SF-268),GI50 (SK-MEL-5),GI50 (SK-OV-3),GI50 (SR),GI50 (SW-620)
CC(C)C(Br)C(=O)NCC(=O)O (stereo not given),> 100 µM (inactive),> 100 µM (inactive),> 100 µM (inactive),> 100 µM (inactive),> 100 µM (inactive),> 100 µM (inactive),> 100 µM (inactive),> 100 µM (inactive),> 100 µM (inactive),> 100 µM (inactive),> 100 µM (inactive),> 100 µM (inactive),> 100 µM (inactive),> 100 µM (inactive),> 100 µM (inactive),> 100 µM (inactive),> 100 µM (inactive),> 100 µM (inactive),> 100 µM (inactive),> 100 µM (inactive)
CC(=O)c1ccc2c(c1)CC1(C2)Cc2cc3c(c(C(=O)O)c2C1)CCC3 (stereo not given),> 100 µM (inactive),37.9 µM (inactive),> 100 µM (inactive),> 100 µM (inactive),> 100 µM (inactive),33 µM (inactive),> 100 µM (inactive),> 100 µM (inactive),> 100 µM (inactive),53.1 µM (inactive),64.6 µM (inactive),92.5 µM (inactive),78.7 µM (inactive),> 100 µM (inactive),63.7 µM (inactive),> 100 µM (inactive),44.6 µM (inactive),> 100 µM (inactive),71.6 µM (inactive),> 100 µM (inactive)
COc1ccc2c(NCCCCCCNc3c4ccccc4nc4cc(OC)ccc34)c3ccccc3nc2c1,0.0753 µM (active),0.0716 µM (active),1.3 µM (inactive),0.367 µM (active),0.0451 µM (active),0.219 µM (active),0.075 µM (active),0.0776 µM (active),0.0653 µM (active),0.427 µM (active),0.0272 µM (active),0.162 µM (active),0.103 µM (active),0.0853 µM (active),0.0573 µM (active),0.213 µM (active),1.01 µM (active),0.245 µM (active),0.0185 µM (active),0.0448 µM (active)
CC1(C)C(OC(=O)c2ccccc2)C[C@]23CCC[C@](C)(C[C@@H](O)C12)C3 (stereo not given in full),19.6 µM (inactive),16.3 µM (inactive),15.6 µM (inactive),19.9 µM (inactive),13.9 µM (inactive),19 µM (inactive),20.2 µM (inactive),16.7 µM (inactive),17 µM (inactive),19.2 µM (inactive),16.2 µM (inactive),30.6 µM (inactive),23.1 µM (inactive),16.7 µM (inactive),23.9 µM (inactive),24.1 µM (inactive),13.1 µM (inactive),85.7 µM (inactive),9.91 µM (inactive),13.9 µM (inactive)
CC(=O)OCCOCCN1CCN(C2=C(Cl)C(=O)c3c(O)ccc(O)c3C2=O)CC1,0.326 µM (active),2.1 µM (inactive),0.776 µM (active),0.339 µM (active),0.305 µM (active),3.1 µM (inactive),1.55 µM (inactive),2.15 µM (inactive),0.423 µM (active),0.318 µM (active),4.9 µM (inactive),0.723 µM (active),0.627 µM (active),0.685 µM (active),0.249 µM (active),1.86 µM (inactive),1.54 µM (inactive),3.66 µM (inactive),0.0444 µM (active),0.179 µM (active)
COC(=O)c1cc(C#N)[nH]c1-c1cc(Br)cs1,19.1 µM (inactive),10.5 µM (inactive),12.9 µM (inactive),17.5 µM (inactive),12.8 µM (inactive),14.5 µM (inactive),13.4 µM (inactive),20.7 µM (inactive),11.3 µM (inactive),10.8 µM (inactive),19.8 µM (inactive),4.78 µM (inactive),4.54 µM (inactive),14.7 µM (inactive),7.55 µM (inactive),17.7 µM (inactive),7.73 µM (inactive),13.4 µM (inactive),24.9 µM (inactive),17.7 µM (inactive)
Cn1nnc2c(C(N)=S)ncn2c1=O,> 100 µM (inactive),> 100 µM (inactive),> 100 µM (inactive),> 100 µM (inactive),> 100 µM (inactive),> 100 µM (inactive),> 100 µM (inactive),> 100 µM (inactive),> 100 µM (inactive),> 100 µM (inactive),> 100 µM (inactive),> 100 µM (inactive),> 100 µM (inactive),> 100 µM (inactive),> 100 µM (inactive),> 100 µM (inactive),> 100 µM (inactive),> 100 µM (inactive),> 100 µM (inactive),> 100 µM (inactive)
NC(=O)C(Nc1c(Cl)cccc1Cl)c1cc2cc(Br)ccc2nc1Cl (stereo not given),> 100 µM (inactive),63.1 µM (inactive),36.8 µM (inactive),76.6 µM (inactive),41.9 µM (inactive),85.3 µM (inactive),28.1 µM (inactive),38 µM (inactive),59.6 µM (inactive),> 100 µM (inactive),90.8 µM (inactive),52.8 µM (inactive),46.3 µM (inactive),80.7 µM (inactive),31.5 µM (inactive),49.8 µM (inactive),37.5 µM (inactive),> 100 µM (inactive),12.2 µM (inactive),37.6 µM (inactive)
CC(=O)NNc1nc(C)c(C(/C=C/c2ccc(NC(C)=O)cc2)=N/NS(=O)(=O)c2ccc(C)cc2)s1,> 100 µM (inactive),> 100 µM (inactive),> 100 µM (inactive),> 100 µM (inactive),> 100 µM (inactive),> 100 µM (inactive),> 100 µM (inactive),> 100 µM (inactive),> 100 µM (inactive),> 100 µM (inactive),> 100 µM (inactive),> 100 µM (inactive),> 100 µM (inactive),> 100 µM (inactive),> 100 µM (inactive),> 100 µM (inactive),> 100 µM (inactive),> 100 µM (inactive),> 100 µM (inactive),> 100 µM (inactive)
Cc1nc2ccccc2nc1-c1ccc(/N=[N+](\[O-])c2ccc(-c3nc4ccccc4nc3C)cc2)cc1,45.5 µM (inactive),> 100 µM (inactive),> 85.9 µM (inactive),> 100 µM (inactive),> 79.8 µM (inactive),27.5 µM (inactive),> 82.4 µM (inactive),> 100 µM (inactive),> 100 µM (inactive),42.4 µM (inactive),> 100 µM (inactive),> 100 µM (inactive),> 100 µM (inactive),50.1 µM (inactive),> 100 µM (inactive),36.6 µM (inactive),> 96.4 µM (inactive),30.8 µM (inactive),> 100 µM (inactive),> 100 µM (inactive)
Cc1ccc(C(=O)N(C(C)C)C(C)C)cc1/N=N/N(C)C,> 100 µM (inactive),> 100 µM (inactive),> 100 µM (inactive),> 100 µM (inactive),> 75.9 µM (inactive),96.6 µM (inactive),> 100 µM (inactive),45.2 µM (inactive),> 31.6 µM (inactive),84.7 µM (inactive),> 100 µM (inactive),31.3 µM (inactive),> 100 µM (inactive),> 100 µM (inactive),33 µM (inactive),> 51.6 µM (inactive),> 100 µM (inactive),> 100 µM (inactive),41.4 µM (inactive),> 92.3 µM (inactive)
